Reference: patent US12673955B2, “Crystal form of p-toluenesulfonate salt of diazabicyclic compound and preparation method therefor” (CRYSTAL PHARMATECH CO., LTD., priority 2020, dated 2026)

Columns and labels:
Type in all cases: physicochemical
[1] = PSD test (laser particle size analyzer, wet method)
Method: The particle size distribution results of the present disclosure were collected on S3500-type laser particle size analyzer of the Microtrac company. The Microtrac S3500 was equipped with an SDC (Sample Delivery Controller) sampling system. The wet method was used in this test, using Isopar G (containing 0.2% lecithin) as the test dispersion medium. The process parameters of the laser particle size analyzer were as follows.
Approximately 10-30 mg of tosylate Form A solid was added into 10 mL of Isopar G (containing 0.2% lecithin). The mixture was mixed thoroughly and transferred into the SDC. The experiment was started when the obscuration is in appropriate range. The particle size distribution (PSD) was tested before and after 30 seconds of ultrasound.

[2] = Intrinsic dissolution of crystalline form; details: pH 6.8 phosphate buffer, 900 mL, 37° C., paddle, tablet surface 0.5 cm^2
Method: The intrinsic dissolution rate data of the present disclosure were collected on an Agilent 708DS-type dissolution apparatus of the Agilent company. The intrinsic dissolution test conditions were as follows.
Approximately 100 mg of tosylate Form A and the solid in the prior art were added into the cavity of the die, and then compressed at 5 KN and held for 1 minute to obtain a tablet having a surface area of 0.5 cm^2.

[3] = Hygroscopicity study by dynamic vapor sorption (DVS)
Method: The dynamic vapor sorption diagrams of the present disclosure were collected on Intrinsic-type and Intrinsic Plus-type dynamic vapor sorption instruments of SMS company. The parameters of the dynamic vapor sorption test of the present disclosure were as follows: • Temperature: 25° C. • Protection gas and flow rate: N2, 200 m L/min • dm/dt: 0.002%/min • Minimum dm/dt equilibration time: 10 min • Maximum Equilibration Time: 180 min • Relative humidity range: 0% RH-95% RH-0% RH • Relative humidity gradient: 10% (0% RH-90% RH-0% RH), 5% (90% RH-95% RH and 95% RH-90% RH).
Dynamic vapor sorption (DVS) was applied to test hygroscopicity of tosylate Form A solid and solid in the prior art with about 10 mg of samples. XRPD patterns were collected.
Non-hygroscopic or almost non hygroscopic: increase in mass is less than 0.2 percent.

[4] = Crystal habit by polarized light microscopy
Text: The polarized light microscope photos of the present disclosure were taken at room temperature with a Zeiss microscope Axio Scope.A1 equipped with an Axiocam 305 color camera and 5×, 10×, 20× and 50× objective lenses.

[5] = Stability study of tosylate Form A (XRPD and chemical impurity after storage)
Method: Approximately 10 mg of tosylate Form A were stored under different conditions of 25° C./60% RH and 40° C./75% RH. XRPD and chemical impurity were checked at 1 week, 2 weeks, 4 weeks and 8 weeks.
Based on the above results, tosylate Form A kept stable for at least 8 weeks.

[6] = Solubility of crystalline form (saturated solutions measured by HPLC); details: for solubility at 1 h / solubility at 2 h / solubility at 4 h / solubility at 24 h: thermodynamic from solid
Method: Tosylate Form A and solid in the prior art were suspended into SGF, FaSSIF, FeSSIF and water to get saturated solutions. After equilibrated for 1 hour, 2 hours, 4 hours and 24 hours, concentrations of the saturated solutions were measured by HPLC.

[7] = Compressibility of crystalline form (manual tablet press, 350 MPa)
Method: A manual tablet press was used for tabletting. Appropriate amount of tosylate Form A and solid in the prior art were compressed by circle punches under 350 MPa pressure to form a tablet. Hardness (H) of the tablet was determined to be 18.36 N by a tablet hardness tester. Diameter (D) and thickness (L) of the tablet were determined to be 6 mm and 1.02 mm by a vernier caliper, respectively. The tensile strength of the tablets was calculated to be 1.9 MPa through the equation of T=2H/πDL.

[8] = Adhesiveness propensity study (material sticking to the punch); details: 8 mm round tooling, 10 kN, 30 s
Method: Approximately 30 mg of tosylate Form A and the solid in the prior art were weighed and then added into the dies of 8 mm round tooling, compressed at 10 kN pressure and held for 30 s. The punch was weighed and amount of material sticking to the punch was calculated. The compression was repeated once and the cumulative amount, maximum amount and average amount of material sticking to the punch during the compression were recorded.

[9] = Isopar G containing 0.2% lecithin
[10] = 25° C./60% RH and 40° C./75% RH, up to 8 weeks

SMILES: Cn1cc(Nc2nccc(N3C[C@H]4CC[C@@H](C3)N4C(=O)[C@@H]3CC3(F)F)n2)cn1 [tosylate Form A, ((1S)-2,2-difluorocyclo-propyl) ((1R,5S)-3-(2-((1-methyl-1H-pyrazol-4-yl)amino)pyrimidin-4-yl)-3,8-diazabicyclo[3.2.1]octan-8-yl)methanone]
- change of particle size distribution after sonication ([1]; 30 seconds of ultrasound): no obvious change or agglomeration
- mean particle size (MV) [1, 9]: 400 μm
- particle size distribution shape [1, 9]: unimodal distribution
- intrinsic dissolution rate compared with the solid in the prior art [2]: higher dissolution rate than the solid in the prior art
- form change after DVS test (XRPD) ([3]; 0% RH-95% RH-0% RH, 25° C.): no obvious form change
- hygroscopicity class ([3]; Chinese Pharmacopoeia 2015 definition, from DVS weight gain at 80% RH): slightly hygroscopic
- weight gain (DVS) ([3]; at 80% RH, 25° C.): 0.35%
- hygroscopicity compared with the prior art ([3]; versus solid in the prior art): relatively lower hygroscopicity
- flowability ([4]; inferred from crystal habit): good flowability
- crystal habit ([4]; polarized light microscopy): rod-like particles
- time kept stable ([5]; 25° C./60% RH and 40° C./75% RH): at least 8 weeks
- Crystalline state after storage [5, 10]: doesn't change
- chemical purity after storage [5, 10]: above 99%
- Puriy ([5]; 25° C./60% RH, 1 week): 99.92%
- Puriy ([5]; 25° C./60% RH, 2 weeks): 100.0%
- Puriy ([5]; 25° C./60% RH, 4 weeks): 99.89%
- Puriy ([5]; 25° C./60% RH, 8 weeks): 99.92%
- Puriy ([5]; 40° C./75% RH, 1 week): 99.90%
- Puriy ([5]; 40° C./75% RH, 2 weeks): 99.91%
- Puriy ([5]; 40° C./75% RH, 4 weeks): 99.90%
- Puriy ([5]; 40° C./75% RH, 8 weeks): 99.91%
- solubility compared with solid in the prior art ([6]; SGF, FaSSIF, FeSSIF and water): higher than that of solid in the prior art
- solubility at 1 h ([6]; simulated gastric fluid, SGF): 5540 µg/mL
- solubility at 2 h ([6]; simulated gastric fluid, SGF): 5990 µg/mL
- solubility at 4 h ([6]; simulated gastric fluid, SGF): 5080 µg/mL
- solubility at 24 h ([6]; simulated gastric fluid, SGF): 5690 µg/mL
- solubility at 1 h ([6]; FaSSIF): 7120 µg/mL
- solubility at 2 h ([6]; FaSSIF): 7310 µg/mL
- solubility at 4 h ([6]; FaSSIF): 7300 µg/mL
- solubility at 24 h ([6]; FaSSIF): 7540 µg/mL
- solubility at 1 h ([6]; FeSSIF): 6770 µg/mL
- solubility at 2 h ([6]; FeSSIF): 7030 µg/mL
- solubility at 4 h ([6]; FeSSIF): 7340 µg/mL
- solubility at 24 h ([6]; FeSSIF): 7780 µg/mL
- solubility at 1 h ([6]; water, H2O): 5260 µg/mL
- solubility at 2 h ([6]; water, H2O): 5340 µg/mL
- solubility at 4 h ([6]; water, H2O): 5240 µg/mL
- solubility at 24 h ([6]; water, H2O): 5560 µg/mL
- compressibility ([7]; 350 MPa pressure): good compressibility
- tensile strength of the tablets ([7]; calculated by T=2H/πDL, tablet compressed under 350 MPa): 1.9 MPa
- Hardness (H) of the tablet ([7]; tablet compressed under 350 MPa, diameter 6 mm, thickness 1.02 mm): 18.36 N
- adhesiveness compared with the prior art solid [8]: superior to the prior art solid
